# Assay results: patent publication US5643887A, “Daunomycin derivative with reduced cytotoxicity toward normal cells” (The Scripps Research Institute, priority 1995, dated 1997)
# Experiments:
# [1] = tested on: HL-60 (promyelocytic leukemia); assay: Sulforhodamine B cytotoxicity assay, HL-60; assay type: cell-based; conditions: Homo sapiens, transformed, 72 hours
# Description: (§1) 1. Preparation of target cells in 96-well plates
# (§2) 2. Preparation of sample drugs and toxic control a. Stock drug solutions were prepared by dissolving drug in the appropriate solvent (determined during chemical characterization studies) and sterile filtering the drug-solvent solution through a sterile 0.2 μ filter unit. An aliquot was taken from each filtered drug solution and the O.D. was measured to determine the drug concentration. […]
# (§3) b. Dilute the stock drug solution prepared above with T.C. medium to the desired initial concentration (10^-2 -10^-4 M). A minimum volume of 220 μL of diluted drug is required per 96-well plate used in the assay.
# (§4) 3. Addition of Sample Compounds and Controls to 96-well Plates b. Add 100 μL of the initial .compound dilution to adjacent duplicate wells in Columns #2. (Four materials can be tested in duplicate per 96-well plate.) c. Remove 10 μL of diluted compound from the wells in Column #2 and transfer to the corresponding wells in Column #3. Mix by pipetting up and down gently approximately five times. d. Transfer 10 μL to the appropriate wells in Column #4 and continue to make […] dilutions of compound across the plate through Column #12. f. Incubate (37° C., 5-10 percent CO2 in humidified incubator) plates for a total of 72 hours. […]
# (§5) IC50 values; i.e., the concentration of Compound required to kill one-half of the treated cells, were then calculated. […]
# [2] = tested on: Ovcar-3 (ovarian carcinoma); assay: Sulforhodamine B cytotoxicity assay, Ovcar-3; assay type: cell-based; conditions: Homo sapiens, transformed, 72 hours
# Description: as §1, §2, §3, §4, §5
# [3] = tested on: NHDF (normal human dermal fibroblasts); assay: Sulforhodamine B cytotoxicity assay, NHDF; assay type: cell-based; conditions: non-transformed, 72 hours
# Description: as §1, §2, §3, §4
# (§6) IC50 values; i.e., the concentration of Compound required to kill one-half of the treated cells, were then calculated.
# [4] = tested on: CHO cells; assay: Sulforhodamine B cytotoxicity assay, CHO; assay type: cell-based; conditions: Cricetulus griseus, non-transformed, 72 hours
# Description: as §1, §2, §3, §4, §5
# [5] = tested on: HMEC (human mammary epithelial cells); assay: Sulforhodamine B cytotoxicity assay, HMEC; assay type: cell-based; conditions: non-transformed, 72 hours
# Description: as §1, §2, §3, §4, §6
# [6] = tested on: SK-Mel-28 (melanoma); assay: Sulforhodamine B cytotoxicity assay, SK-Mel-28; assay type: cell-based; conditions: Homo sapiens, transformed, 72 hours
# Description: as §1, §2, §3, §4, §5
# [7] = tested on: PBL (human peripheral blood lymphocytes); assay: Sulforhodamine B cytotoxicity assay, PBL; assay type: cell-based; conditions: Lymphocyte, non-transformed, 72 hours
# Description: as §1, §2, §3, §4, §6
# [8] = tested on: transformed, cancerous cell lines; assay: Cytotoxicity comparison with daunomycin, cancer cell lines; assay type: cell-based
# Description: SULFORHODAMINE B CYTOTOXICITY ASSAY
# as §6
# All other cells or cell lines were obtained from the American Type Culture Collection (ATCC) (all except CHO cells are human or mouse cancer cell lines as described by the ATCC).
# [9] = tested on: HT-29 (colon carcinoma); assay: Sulforhodamine B cytotoxicity assay, HT-29; assay type: cell-based; conditions: Homo sapiens, transformed, 72 hours
# Description: as §1, §2, §3, §4, §5
# [10] = LD50 in mice; conditions: mouse, in vivo, ip, here found
# Description: Daunomycin has a reported LD50 in mice of 20 mg/kg when administered intravenously (i.v.) and 5 mg/kg when administered intraperitoneally (i.p.) [Merck Index, 11th ed., Merck & Co., Inc., Rahway, N.J., page 445 (1989)].
# [11] = tested on: EMT-6 mammary tumor cells; assay: In vivo mouse study, EMT-6 mammary tumor
# Description: FIG. 1 is a graph showing the average tumor size in 6-10 week old female Balb/c BYJ mice inoculated with EMT-6 mammary tumor cells. Control mice (open squares) were treated with normal saline on days 1, 5 and 9 after inoculation. Study mice (X's) were treated with an equal volume of normal saline containing 15 mg/kg of Compound I on those same days post inoculation with the tumor cells.
# The data of FIG. 1 illustrate an in vivo study using Compound 1. Here, groups of 6-10 week old, female Balb/c BYJ mice (obtained from The Scripps Research Institute breeding colony, La Jolla, Calif.) (8 per group) were inoculated with 5×10^5 cells of the EMT6 tumor cell line, a mammary tumor. The mice were then treated with normal saline (control) or normal saline containing 15 mg/kg of Compound 1 (study) on days 1, 5 and 9 after the inoculation.
# The average tumor volume was then calculated for each group of mice.
# [12] = tested on: Copan-1 (pancreatic carcinoma); assay: Sulforhodamine B cytotoxicity assay, Copan-1; assay type: cell-based; conditions: transformed, 72 hours
# Description: as §1, §2, §3, §4, §5
# [13] = tested on: P-388 (mouse leukemia); assay: Sulforhodamine B cytotoxicity assay, P-388; assay type: cell-based; conditions: P388, transformed, 72 hours
# Description: as §1, §2, §3, §4, §5
# [14] = tested on: MCF-7 (breast carcinoma); assay: Sulforhodamine B cytotoxicity assay, MCF-7; assay type: cell-based; conditions: Homo sapiens, MCF7, transformed, 72 hours
# Description: as §1, §2, §3, §4, §5
# [15] = tested on: MOLT-4 (T cell leukemia); assay: Sulforhodamine B cytotoxicity assay, MOLT-4; assay type: cell-based; conditions: Homo sapiens, transformed, 72 hours
# Description: as §1, §2, §3, §4, §5
# [16] = tested on: UCLA-P3 (lung carcinoma); assay: Sulforhodamine B cytotoxicity assay, UCLA-P3; assay type: cell-based; conditions: Homo sapiens, UCLA P-3, transformed, 72 hours
# Description: as §1, §2, §3, §4, §6
# [17] = tested on: mice; conditions: i.v., Merck Index; cited from earlier work
# [18] = first four cancer cell lines (two leukemias and two carcinomas)
Compound,IC50 [1] [nM],IC50 [2] [nM],IC50 [3] [nM],IC50 [4] [nM],IC50 [5] [nM],IC50 [6] [nM],IC50 [7] [nM],"potency relative to daunomycin [8, 18]",IC50 [9] [nM],LD50 [10] [mg/kg],IC50 [12] [nM],IC50 [13] [nM],IC50 [14] [nM],IC50 [15] [nM],IC50 [16] [nM],also measured
"COc1cccc2c1C(=O)c1c(O)c3c(c(O)c1C2=O)C[C@@](O)(C(C)=O)C[C@@H]3O[C@H]1C[C@H](NC(=O)OCCS(=O)(=O)c2ccccc2)[C@H](O)[C@H](C)O1 [Compound 1, 8-Acetyl-10-[[3-[N-[2-(phenylsulfonyl)-ethoxycarbonyl]]amino-2,4,6-trideoxy-1-lyxo-hexapyranosyl]oxy]-7,8,9,10-tetrahydro-6,8,11-trihydroxy-1-methoxy-5,12-naphthacenedione]",98,1600,13000,6300,13000,3100,25000,same potencies,780,~35,780,780,780,1,3100,"cancer cell cytotoxicity difference between Compound 1 and daunomycin ([8]; cancer cells): no difference to a four-fold difference; potency relative to daunomycin ([8]; final two carcinoma cell lines): about one-fourth the potency of daunomycin; potency relative to daunomycin ([8]; second three cancer cell lines (melanoma, pancreatic carcinoma and mouse leukemia)): about one-half the potency of daunomycin; tumor burden of treated mice vs control ([11]; 15 mg/kg on days 1, 5 and 9, between days 14 and 16): about one-third the tumor burden of the control group; average tumor volume vs control ([11]; 15 mg/kg on days 1, 5 and 9, by day 8 post inoculation): slight difference in the average volume of the tumors, with the study group having a lower tumor burden; control group's average tumor volume relative to study group ([11]; 15 mg/kg on days 1, 5 and 9, by day 20 post inoculation): about twice that of the study group; growth of mammary tumors ([11]; EMT-6 implanted in mice): retarded the growth of mammary tumors"
COc1cccc2c1C(=O)c1c(O)c3c(c(O)c1C2=O)C[C@@](O)(C(C)=O)C[C@@H]3O[C@H]1C[C@H](N)[C@H](O)[C@H](C)O1 [Daunomycin],< 98,390,190,390,390,1600,780,same potencies,780,~12,390,390,780,1,730,LD50 [17]: 20 mg/kg
